# Source: publication PMC12514245, “Impaired migration and lung invasion of human melanoma by a novel small molecule targeting the transmembrane domain of death receptor p75^NTR” (EMBO Molecular Medicine, 2025)
# Values joined by “and” are separate entries in the source; they are usually repeats but may differ in a detail not shown here. Identical values can stand only once. “Also recorded” adds a separate entry of the source.
# Legend:
# [1] = target: T1, p75^NTR TMD I252A (Homo sapiens, UniProt P08138, I252A); test: AraTM assay, I252A mutant p75NTR TMD; format: cell-based; conditions: for GFP/OD630, Mean / GFP/OD630, individual replicates: I252A
# T1 construct: Comparison of wild-type (WT) p75^NTR TMD and I252A, P253G and V254A mutants in the AraTM assay; expressed in transfected cells; host or cells: E. coli AS19 (LPS-negative)
# T1 sequence (P08138 250-275 I252A): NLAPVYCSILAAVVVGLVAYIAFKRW
# [2] = target: T2, p75^NTR TMD V254A (Homo sapiens, UniProt P08138, V254A); test: AraTM assay, V254A mutant p75NTR TMD; format: cell-based; conditions: for GFP/OD630, Mean / GFP/OD630, individual replicates: V254A;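 for GFP/OD630, Mean: normalised to the no-drug GFP/OD630 signal set at 100%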;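 for GFP/OD630, individual replicates: normalised to the no-drug GFP/OD630 signal set at 100%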
# T2 construct: Comparison of wild-type (WT) p75^NTR TMD and I252A, P253G and V254A mutants in the AraTM assay; expressed in transfected cells; host or cells: E. coli AS19 (LPS-negative)
# T2 sequence (P08138 250-275 V254A): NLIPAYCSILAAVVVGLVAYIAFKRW
# [3] = target: T3, p75^NTR TMD (Homo sapiens, UniProt P08138); test: AraTM assay, wild-type p75NTR TMD (GFP/OD630); format: cell-based
# T3 sequence (P08138 250-275 limits assumed): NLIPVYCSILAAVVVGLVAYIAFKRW
# [4] = target: T4, p75^NTR TMD P253G (Homo sapiens, UniProt P08138, P253G); test: AraTM assay, P253G mutant p75NTR TMD; format: cell-based; conditions: for GFP/OD630, Mean / GFP/OD630, individual replicates: P253G
# T4 construct: Comparison of wild-type (WT) p75^NTR TMD and I252A, P253G and V254A mutants in the AraTM assay; expressed in transfected cells; host or cells: E. coli AS19 (LPS-negative)
# T4 sequence (P08138 251-272 P253G limits assumed): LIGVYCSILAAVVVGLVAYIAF
# [5] = tested on: A875 shp75 cells; test: Wound healing cell motility assay, A875 shp75; format: cell-based, human; conditions: A875 shp75, 1uM
# Method: For wound healing assay, cells were grown until confluency and subjected to a wound across the cell mono-layer. Cells were then incubated with serum-free media either with DMSO or a small molecule (with or without 5 µM Q_VD_poH) and imaged at specific time-points. Cell migration is reflected as fold change in wound area over time.
# [6] = wt, compound 10 μM, Figure 5C-E
# [7] = wt, compound 20 μM, Figure 5C-E
# [8] = wt, compound 30 μM, Figure 5C-E
# [9] = wt, compound 40 μM, Figure 5C-E
structure (smiles),measurement,setting,value
Cc1cccc(-c2cncc(Nc3ccc(Br)c(Cl)c3Cl)n2)c1C [Np75-4A22],effect of Ile252 mutation on compound activity in AraTM assay,[1],affected
same,"GFP/OD630, Mean",[1]; compound 5 μM,0.99
same,"GFP/OD630, individual replicates",[1]; compound 5 μM,0.93 and 1.08 and 0.97
same,"GFP/OD630, Mean",[1]; compound 10 μM,0.85
same,"GFP/OD630, individual replicates",[1]; compound 10 μM,0.76 and 0.91 and 0.89
same,"GFP/OD630, Mean",[1]; compound 20 μM,0.84
same,"GFP/OD630, individual replicates",[1]; compound 20 μM,1.01 and 0.83 and 0.69
same,"GFP/OD630, Mean",[1]; compound 30 μM,0.73
same,"GFP/OD630, individual replicates",[1]; compound 30 μM,0.91 and 0.67 and 0.61
same,"GFP/OD630, Mean",[1]; compound 40 μM,0.72
same,"GFP/OD630, individual replicates",[1]; compound 40 μM,0.77 and 0.62 and 0.76
same,effect of Val254 mutation on compound activity in AraTM assay,[2],unaffected
same,"GFP/OD630, Mean",[2]; compound 5 μM,0.83
same,"GFP/OD630, individual replicates",[2]; compound 5 μM,0.98 and 0.74 and 0.77
same,"GFP/OD630, Mean",[2]; compound 10 μM,0.64
same,"GFP/OD630, individual replicates",[2]; compound 10 μM,0.63 (2×) and 0.65
same,"GFP/OD630, Mean",[2]; compound 20 μM,0.61
same,"GFP/OD630, individual replicates",[2]; compound 20 μM,0.46 and 0.62 and 0.74
same,"GFP/OD630, Mean",[2]; compound 30 μM,0.47
same,"GFP/OD630, individual replicates",[2]; compound 30 μM,0.41 and 0.51 and 0.50
same,"GFP/OD630, Mean",[2]; compound 40 μM,0.54
same,"GFP/OD630, individual replicates",[2]; compound 40 μM,0.57 and 0.51 and 0.53
same,"IC50 in the AraTM assay, compared with Div17E5",[3],improved IC50 compared to Div17E5
same,"GFP/OD630, Mean","[3]; compound 2 μM, Figure 5B",0.98
same,"GFP/OD630, individual replicates","[3]; compound 2 μM, Figure 5B",0.97 and 0.96 and 1.01
same,"GFP/OD630, Mean","[3]; compound 4 μM, Figure 5B",0.58
same,"GFP/OD630, individual replicates","[3]; compound 4 μM, Figure 5B",0.59 and 0.58 and 0.56
same,"GFP/OD630, Mean","[3]; compound 6 μM, Figure 5B",0.46
same,"GFP/OD630, individual replicates","[3]; compound 6 μM, Figure 5B",0.46 and 0.49 and 0.42
same,"GFP/OD630, Mean","[3]; compound 8 μM, Figure 5B",0.41
same,"GFP/OD630, individual replicates","[3]; compound 8 μM, Figure 5B",0.41 and 0.43 and 0.37
same,"GFP/OD630, Mean","[3]; compound 10 μM, Figure 5B",0.39
same,"GFP/OD630, individual replicates","[3]; compound 10 μM, Figure 5B",0.36 and 0.38 and 0.43
same,activity in the AraTM assay,[3]; structure-activity comparison,better performance at low micromolar concentrations; also recorded: best compounds; also recorded: best compound in the 4A series
same,"GFP/OD630, Mean","[3]; wt, compound 5 μM, Figure 5C-E",0.78
same,"GFP/OD630, individual replicates","[3]; wt, compound 5 μM, Figure 5C-E",0.78 and 0.81 and 0.74
same,"GFP/OD630, Mean",[3]; [6],0.57
same,"GFP/OD630, individual replicates",[3]; [6],0.53 and 0.48 and 0.68
same,"GFP/OD630, Mean",[3]; [7],0.49
same,"GFP/OD630, individual replicates",[3]; [7],0.48 and 0.44 and 0.56
same,"GFP/OD630, Mean",[3]; [8],0.34
same,"GFP/OD630, individual replicates",[3]; [8],0.46 and 0.29 and 0.27
same,"GFP/OD630, Mean",[3]; [9],0.32
same,"GFP/OD630, individual replicates",[3]; [9],0.31 and 0.34 and 0.30
same,effect of Pro253 mutation on compound activity in AraTM assay,[4],unaffected
same,"GFP/OD630, Mean",[4]; compound 5 μM,0.71
same,"GFP/OD630, individual replicates",[4]; compound 5 μM,0.58 and 0.64 and 0.9
same,"GFP/OD630, Mean",[4]; compound 10 μM,0.74
same,"GFP/OD630, individual replicates",[4]; compound 10 μM,0.6 and 0.87 and 0.74
same,"GFP/OD630, Mean",[4]; compound 20 μM,0.58
same,"GFP/OD630, individual replicates",[4]; compound 20 μM,0.43 and 0.66 (2×)
same,"GFP/OD630, Mean",[4]; compound 30 μM,0.52
same,"GFP/OD630, individual replicates",[4]; compound 30 μM,0.72 and 0.32 and 0.53
same,"GFP/OD630, Mean",[4]; compound 40 μM,0.39
same,"GFP/OD630, individual replicates",[4]; compound 40 μM,0.36 (2×) and 0.44
same,Wound area (Fold),"[5]; 0 h, Mean",1.000 Fold
same,Wound area (Fold),"[5]; 0 h, n1",0.845 Fold
same,Wound area (Fold),"[5]; 0 h, n2",1.081 Fold
same,Wound area (Fold),"[5]; 0 h, n3",1.074 Fold
same,Wound area (Fold),"[5]; 3 h, Mean",0.931 Fold
same,Wound area (Fold),"[5]; 3 h, n1",0.916 Fold
same,Wound area (Fold),"[5]; 3 h, n2",0.940 Fold
same,Wound area (Fold),"[5]; 3 h, n3",0.936 Fold
